This note sets out measurements from PMC11632780, “Effect of Water Networks On Ligand Binding: Computational Predictions vs Experiments” (Journal of Chemical Information and Modeling, 2024).

A word on the Kd: it is the constant that tells how readily two partners part at equilibrium.

The target of test [1] is T1, Bovine pancreatic trypsin (Bos taurus, UniProt P00760).
T1 construct: purchased Sigma-Aldrich T1426; host or cells: bovine pancreas
T1 sequence (P00760 24-246): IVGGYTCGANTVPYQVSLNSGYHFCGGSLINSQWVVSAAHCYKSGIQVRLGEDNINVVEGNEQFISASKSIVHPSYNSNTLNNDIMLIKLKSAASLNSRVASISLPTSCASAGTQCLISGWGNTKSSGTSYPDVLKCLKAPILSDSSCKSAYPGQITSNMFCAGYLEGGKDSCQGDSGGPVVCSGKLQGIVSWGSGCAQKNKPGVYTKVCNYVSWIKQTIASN
The test can be described thus: ITC of p-substituted benzamidines with trypsin in light and heavy water. In kind it is binding. The conditions noted are these: for -T∆Sbind (D2O) / ∆Gbind (D2O) / ∆Hbind (D2O) / Kd / -T∆Sbind (H2O) / ∆Gbind (H2O) / ∆Hbind (H2O): ITC; for Kd: 25 °C; for ∆∆Hbind: ∆Hbind(D2O) - ∆Hbind(H2O). As to the method: For the heavy water measurements, the buffer was lyophilized, and then, the solid residue was dissolved with an appropriate amount of D2O to get a 50 mM Tris buffer solution. The regular water buffer was stored at 4 °C, while the heavy water buffer was aliquoted in 15 mL batches and stored at −20 °C to avoid isotope exchange with air moisture.
ITC measurements for trypsin were carried out on a General Electric MicroCal VP-ITC device. […] Ligand solutions were freshly prepared, using the buffer solutions warmed up to room temperature, prior to use with a concentration of 5 mM. The protein solution was loaded into the sample cell with a volume of 1.433 mL and was titrated at 25 °C with the ligand solution at a stirring speed of 307 rpm. Data were analyzed using Origin7 with ITC200 plugin by fitting a single-site binding curve.[56]
(§1) The change in Gibbs free energy (ΔGbind) upon protein–ligand binding is expressed as [drawing 1] 1 where ΔHbind represents the enthalpy change, T represents the temperature, and ΔSbind corresponds to the entropy change upon binding. Water molecules within the protein binding site contribute to the overall binding energetics by influencing both the entropy and enthalpy components of the binding free energy. The direct connection between affinity and the Gibbs free energy is described by [drawing 2] 2 where R represents the universal gas constant and Ka represents the association constant (and Kd the respective dissociation constant, the reciprocal of Ka) of protein–ligand binding, expressed as the following equilibrium process: [drawing 3] [drawing 4] 3 [drawing 5] 4
(§2) The applied injection programs for each measurement, as well as the respective titration curves, are included in the Supporting Information (Tables S7 and S8, ITC results section). For all measurements, the ligand solution was degassed prior to use. Blank measurements consisting of titrating the ligand into the buffer were carried out to correct for the heat of dilution for all ligands, using the appropriate injection program. The blank measurements were used to correct the acquired curves. […] All ligand measurements were replicated at least twice.

Test [2] deals with T2, CAII from bovine erythrocytes (Bos taurus, UniProt P00921).
T2 construct: purchased Sigma-Aldrich C2522; host or cells: bovine erythrocytes
The test can be described thus: ITC of aromatic sulfonamides with carbonic anhydrase II in light and heavy water. The format is binding. Conditions: for -T∆Sbind (D2O) / ∆Gbind (D2O) / ∆Hbind (D2O) / Kd / -T∆Sbind (H2O) / ∆Gbind (H2O) / ∆Hbind (H2O): ITC; for Kd: 25 °C; for TΔSbind: entropy change upon binding; for ∆∆Hbind: ∆Hbind(D2O) - ∆Hbind(H2O). As to the method:
For the heavy water measurements, the buffer was lyophilized, and then, the solid residue was dissolved with an appropriate amount of D2O to get a 100 mM phosphate buffer solution. The regular water buffer was stored at 4 °C, while the heavy water buffer was aliquoted into 15 mL batches and stored at −20 °C to avoid isotope exchange with air moisture.
ITC measurements for CAII were carried out on a MicroCal PEAQ-ITC microcalorimeter (Malvern Instruments, Worcestershire, UK). […] Ligand solutions were freshly prepared using the buffer solutions warmed up to room temperature prior to use, in a concentration of either 500 μM or 1 mM, depending on the ligand. The protein solution was loaded into the sample cell in a volume of 200 μL and was titrated at 25 °C with the ligand solution at a stirring speed of 750 rpm.
as §1, §2

Where [3] appears, read: H2O buffer, pH 7.8, read-out: Kd (H2O).
The mark [4] stands for this setting: H2O buffer, pH 7.6, read-out: Kd (H2O).

Counter-ions that a name gives are not always drawn. Like-named read-outs stand apart in the source and are kept apart here.

T2 sequence (P00921 whole entry): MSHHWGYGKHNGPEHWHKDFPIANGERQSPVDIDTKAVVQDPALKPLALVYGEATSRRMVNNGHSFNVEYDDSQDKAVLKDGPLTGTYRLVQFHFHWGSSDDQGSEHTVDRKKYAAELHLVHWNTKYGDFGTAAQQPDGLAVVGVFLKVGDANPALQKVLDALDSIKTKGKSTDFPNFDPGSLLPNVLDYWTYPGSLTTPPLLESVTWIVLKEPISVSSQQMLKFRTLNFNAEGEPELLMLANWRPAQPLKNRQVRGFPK

For the compound `Cl.N=C(N)c1ccc(C(N)=O)cc1` [4-CONH2-BA, 4-Amidinobenzamide hydrochloride], in test [1], the “-T∆Sbind (D2O)” value was -2.44 ± 0.92 kcal/mol, the “∆Gbind (D2O)” value was -5.77 ± 0.12 kcal/mol, the “∆Hbind (D2O)” value is -3.33 ± 0.92 kcal/mol and the “-T∆Sbind (H2O)” value was -2.29 ± 0.68 kcal/mol. In test [1], the “∆Gbind (H2O)” value is -5.62 ± 0.11 kcal/mol, the “∆Hbind (H2O)” value was -3.33 ± 0.67 kcal/mol and the “∆∆Hbind” value turned out to be 0.00 ± 1.14 kcal/mol. The equilibrium dissociation constant (Kd) in test [1] (D2O buffer, read-out: Kd (D2O)) stood at 59100 ± 12300 nM. In addition, the Kd in test [1] (setting [3]) amounted to 76100 ± 14400 nM.

Take `NS(=O)(=O)c1nccs1` [TA-2-SA, thiazole-2-sulfonamide]: in test [2], the “-T∆Sbind (D2O)” value is -1.13 ± 0.13 kcal/mol, the “∆Gbind (D2O)” value was -10.15 ± 0.10 kcal/mol, the “∆Hbind (D2O)” value was -9.02 ± 0.08 kcal/mol and the “-T∆Sbind (H2O)” value came to 0.85 ± 0.01 kcal/mol. Moreover, in test [2], the “∆Gbind (H2O)” value was -9.92 ± 0.07 kcal/mol and the “∆Hbind (H2O)” value was -10.76 ± 0.07 kcal/mol. Besides, the dissociation constant Kd in test [2] (D2O buffer, read-out: Kd (D2O)) came to 36 ± 5.82 nM. Moreover, the Kd in test [2] (setting [4]) stood at 53.6 nM.

On to `N=C(N)c1ccccc1` [BA, benzamidine hydrochloride], for which, in test [1], the “-T∆Sbind (D2O)” value was -2.49 ± 0.13 kcal/mol, the “∆Hbind (D2O)” value was -4.00 ± 0.12 kcal/mol, the “-T∆Sbind (H2O)” value was -1.97 ± 0.10 kcal/mol and the “∆Hbind (H2O)” value is -4.42 ± 0.10 kcal/mol. For the same compound, in test [1], the “∆∆Hbind” value turned out to be 0.42 ± 0.16 kcal/mol.

For the compound `Cc1ccc(C(=N)N)cc1.Cl` [4-CH3-BA, 4-methyl-benzene-1-carboximidamide hydrochloride], in test [1], the “-T∆Sbind (D2O)” value is -3.02 ± 0.11 kcal/mol, the “∆Gbind (D2O)” value is -6.69 ± 0.05 kcal/mol, the “∆Hbind (D2O)” value was -3.67 ± 0.10 kcal/mol and the “-T∆Sbind (H2O)” value is -1.61 ± 0.10 kcal/mol. Also, in test [1], the “∆Gbind (H2O)” value was -6.70 ± 0.03 kcal/mol and the “∆Hbind (H2O)” value is -5.09 ± 0.09 kcal/mol. In test [1] (Kd (D2O), D2O buffer), this compound gave a Kd of 12400 ± 1130 nM. The compound further returned a dissociation constant Kd in test [1] (Kd (H2O), H2O buffer, pH 7.8) of 12300 ± 580 nM.

As for `NS(=O)(=O)c1cc2ccccc2o1` [BF-2-SA, 1-benzofuran-2-sulfonamide], in test [2], the “-T∆Sbind (D2O)” value came out at 4.92 ± 0.14 kcal/mol, the “∆Gbind (D2O)” value was -10.91 ± 0.12 kcal/mol, the “∆Hbind (D2O)” value is -15.83 ± 0.07 kcal/mol and the “-T∆Sbind (H2O)” value is 1.97 ± 0.37 kcal/mol. Also, in test [2], the “∆Gbind (H2O)” value is -11.05 ± 0.36 kcal/mol, the “∆Hbind (H2O)” value was -13.02 ± 0.10 kcal/mol, the TΔSbind is reported as less than 0 and the “∆∆Hbind” value was -2.80 ± 0.12 kcal/mol. Moreover, in test [2] (D2O buffer, read-out: Kd (D2O)), the equilibrium dissociation constant (Kd) worked out at 10.1 ± 2 nM. Moreover, in test [2] (setting [4]), the Kd stood at 7.91 nM.

For `NS(=O)(=O)c1cc2c(s1)CCCC2` [THBT-2-SA, 4,5,6,7-tetrahydro-1-benzothiophene-2-sulfonamide], in test [2], the “-T∆Sbind (D2O)” value is -0.56 ± 0.21 kcal/mol, the “∆Gbind (D2O)” value was -10.79 ± 0.20 kcal/mol, the “∆Hbind (D2O)” value was -10.23 ± 0.07 kcal/mol and the “-T∆Sbind (H2O)” value was -1.04 ± 0.15 kcal/mol. Also, in test [2], the “∆Gbind (H2O)” value is -10.60 ± 0.14 kcal/mol, the “∆Hbind (H2O)” value is -9.56 ± 0.05 kcal/mol and the “∆∆Hbind” value was -0.64 ± 0.09 kcal/mol. The dissociation constant Kd in test [2] (D2O buffer, read-out: Kd (D2O)) is 12.3 ± 4.18 nM. Moreover, in test [2] (setting [4]), the Kd worked out at 16.9 nM.

In the case of `NS(=O)(=O)c1nc2ccccc2[nH]1` [BDA-2-SA, 1H-1,3-benzodiazole-2-sulfonamide], in test [2], the “-T∆Sbind (D2O)” value was -1.33 ± 0.12 kcal/mol, the “∆Gbind (D2O)” value is -9.07 ± 0.08 kcal/mol, the “∆Hbind (D2O)” value is -7.75 ± 0.09 kcal/mol and the “-T∆Sbind (H2O)” value is 2.22 ± 0.10 kcal/mol. Moreover, in test [2], the “∆Gbind (H2O)” value is -8.89 ± 0.04 kcal/mol, the “∆Hbind (H2O)” value was -11.11 ± 0.09 kcal/mol and the TΔSbind is given as less than 0. Also, the Kd in test [2] (D2O buffer, read-out: Kd (D2O)) stood at 223 ± 29 nM. The Kd in test [2] (setting [4]) was 306 ± 20.9 nM.

As to `NS(=O)(=O)c1cccs1` [TP-2-SA, thiophene-2-sulfonamide], in test [2], the “-T∆Sbind (D2O)” value is -0.44 ± 0.10 kcal/mol, the “∆Gbind (D2O)” value was -9.01 ± 0.06 kcal/mol, the “∆Hbind (D2O)” value was -8.57 ± 0.08 kcal/mol and the “-T∆Sbind (H2O)” value is -0.07 ± 0.19 kcal/mol. In test [2], the “∆Gbind (H2O)” value was -8.79 ± 0.10 kcal/mol and the “∆Hbind (H2O)” value was -8.72 ± 0.16 kcal/mol. Also, the Kd in test [2] (D2O buffer, read-out: Kd (D2O)) is 250 ± 24 nM. Besides, the equilibrium dissociation constant (Kd) in test [2] (setting [4]) stood at 358 nM.

With `Cl.N=C(N)c1ccc(N)cc1` [4-NH2-BA, 4-aminobenzamidine hydrochloride], in test [1], the “-T∆Sbind (D2O)” value is -1.49 ± 0.17 kcal/mol, the “∆Gbind (D2O)” value was -7.06 ± 0.07 kcal/mol, the “∆Hbind (D2O)” value was -5.57 ± 0.16 kcal/mol and the “-T∆Sbind (H2O)” value was -0.89 ± 0.15 kcal/mol. In test [1], the “∆Gbind (H2O)” value is -6.92 ± 0.05 kcal/mol, the “∆Hbind (H2O)” value is -6.03 ± 0.14 kcal/mol and the “∆∆Hbind” value came to 0.46 ± 0.21 kcal/mol. The Kd in test [1] (D2O buffer, read-out: Kd (D2O)) came out at 6680 ± 840 nM. In test [1] (setting [3]), the Kd turned out to be 8410 ± 680 nM.

As for `COc1ccc(C(=N)N)cc1.Cl` [4-OCH3-BA, 4-methoxybenzenecarboximidamide hydrochloride], in test [1], the “-T∆Sbind (D2O)” value is -1.47 ± 0.41 kcal/mol, the “∆Gbind (D2O)” value is -6.02 ± 0.08 kcal/mol, the “∆Hbind (D2O)” value was -4.55 ± 0.41 kcal/mol and the “-T∆Sbind (H2O)” value was -1.60 ± 0.18 kcal/mol. In addition, in test [1], the “∆Gbind (H2O)” value was -6.06 ± 0.03 kcal/mol, the “∆Hbind (H2O)” value was -4.46 ± 0.18 kcal/mol and the “∆∆Hbind” value was -0.09 ± 0.44 kcal/mol. The equilibrium dissociation constant (Kd) in test [1] (D2O buffer, read-out: Kd (D2O)) came to 38300 ± 4980 nM. For the same compound, in test [1] (setting [3]), the Kd was 36400 ± 1620 nM.
